Patent US20240302356A1, “METHOD FOR DETERMINING A TOXICITY AND/OR GROWTH PROMOTION EFFECT OF A TREATMENT OR COMPOUND” (priority 2021, published 2024)
Where two headings read alike, the source gives them in different places.

Legend:
Tobacco nicotiana = Tobacco nicotiana seedlings, flow cytometry (Experiments A1.1, A1.2); type: in vivo; settings: plant seedlings, Cd, Experiment A1.1
Source text: (§1) FIGS. 14A and B illustrates from left to right: Average number of nuclei per microliter of carrier fluid; Endoreplication index (EI), for defence (EIDEFENCE) and for growth (EIGROWTH) of the analysed plant samples from different plant systems exposed to the various treatments mentioned in the table. Data are expressed relative to the first listed condition of each experiment (reference). […] In particular, the toxic effect of Cd in T. nicotiana (see Experiment A1.1) was confirmed by the present invention since EIGROWTH decreased and EIDEFENCE increased in the plant seedlings. Mitigation of this Cd-induced growth inhibition by biochar was confirmed (see Experiment A1.2). […] To optimize the growing medium for A. thaliana, different dilutions of MS medium were tested (see Experiment A1.4). […] The toxic effects of ACC (see Experiment A1.8), IAA (see Experiment A1.9) and the osmoticum PEG (simulating drought stress, see Experiment A1.10) on A. thaliana were confirmed by the present invention since EIGROWTH decreased and EIDEFENCE increased.

[1] = test system: D. caryophyllus seedlings; test: D. caryophyllus seedlings in 48-well microtiter plate with 1/4 MS medium, flow cytometry; type: in vivo, Dianthus caryophyllus; settings: 9 days
Method: Since results are promising for young seedlings of A. thaliana, it was also investigated whether the invention works in other plant species. To investigate whether the tipping point can also be determined using another plant species, tetraploid D. caryophyllus plants (i.e., basic ploidy level is 4C) were grown in a 48-well microtiter plate with ¼ MS medium and exposed to a Cd concentration range between 0 and 50 μM Cd. FIG. 13 illustrates flow cytometry data of D. caryophyllus seedlings exposed to a Cd range (10-50 μM Cd) and harvested after 9 days. Data are expressed relative to the control condition shown by the horizontal line (1.0). A) Average number of nuclei per microliter of carrier fluid; B) Endoreplication index (EI); C) Relative ploidy level; D) Relative ratios of consecutive ploidy levels; E) EIDEFENCE; and F) EIGROWTH. One-way ANOVA compared to the unexposed condition: * p<0.05.

Capsicum annuum = Capsicum annuum hypocotyls with roots, flow cytometry (Experiment A1.3); type: in vivo
Source text: as §1

A. thaliana leaves = A. thaliana leaves cultivated in a hydroponic system, flow cytometry; type: in vivo, Arabidopsis thaliana
Method: To investigate whether the tipping point can also be determined using another cultivation system, A. thaliana plants were grown in a hydroponic system and exposed to a Cd concentration range after 11 days. Since results are promising for young seedlings, it was also investigated whether the invention works in plants of different ages. Therefore, individual samples of the first and the third leaf were harvested at different time points.
LEAF 1: FIG. 11 illustrates flow cytometry data of the first A. thaliana leaf exposed to a Cd range (1-10 μM Cd) after 11 days and harvested at different time points (12-21 days). Data are expressed relative to the unexposed condition (0 μM Cd=1.0). A) Endoreplication index (EI); B) Relative ploidy level; C) Relative ratios of consecutive ploidy levels; D) EIDEFENCE; and E) EIGROWTH. One-way ANOVA compared to the unexposed condition: * p<0.05. […] As known from literature, the maximum ploidy level of young leaves is lower than in mature plants. This is confirmed by the different ploidy levels observed, see FIG. 11B: leaf 1 reaches ploidy levels up to 8C after 12 days, 16C after 14 days and the highest ploidy level of 32C was only reached after 18 days. This shift in maximum ploidy level is hypothesized to influence the tipping point. Therefore, at each age, the tipping point is identified. […] This is confirmed by increased 8C/16C ratios, see FIG. 11C.
LEAF 3: FIG. 12 illustrates flow cytometry data of the third A. thaliana leaf exposed to a Cd range (1-10 μM Cd) after 11 days and harvested at different time points (14-21 days). Data are expressed relative to the unexposed condition (0 μM Cd=1.0). A) Endoreplication index (EI); B) Relative ploidy level; C) Relative ratios of consecutive ploidy levels; D) EIDEFENCE; and E) EIGROWTH. One-way ANOVA compared to the unexposed condition: * p<0.05. […] The different ploidy levels observed confirm the lower maximum ploidy level in young leaves, see FIG. 12B: leaf 3 reaches ploidy levels up to 8C after 14 days, 16C after 18 days and 32C after 21 days. At day 14, leaf 3 was focused on normal cell division as evidenced by the elevated 2C ratio.

[2] = toxic treatments, Experiments A1.8-A1.11
[3] = Cd 10-50 μM, 4C as tipping point

NC1(C(=O)O)CC1 [ACC]
EIDEFENCE (Arabidopsis thaliana; [2]): increased | EIGROWTH (Arabidopsis thaliana; [2]): decreased

[Cd] [Cd, cadmium]
EIDEFENCE (Arabidopsis thaliana; 30 μM Cd or more, 10 days): significant and dose-dependent increases | number of nuclei per microliter (plant growth) (Arabidopsis thaliana; Cd concentrations from 30 µM or higher, 10 days): significant decrease | EIDEFENCE (Arabidopsis thaliana; in vivo): dose-dependent increase | EIGROWTH (Arabidopsis thaliana; in vivo): less pronounced dose-dependent decrease | growth (concentration of nuclei) (Arabidopsis thaliana; in vivo): dose-dependent growth retardation | endoreplication index EI (Arabidopsis thaliana; seedlings in MS medium, Cd concentration range 0-50 μM, FIG. 10B): dose-dependent induction in endoreplication | EIDEFENCE (Arabidopsis thaliana; [2]): increased | EIGROWTH (Arabidopsis thaliana; [2]): decreased | EIDEFENCE (Tobacco nicotiana): increased | EIGROWTH (Tobacco nicotiana): decreased | EI ([1]; 50 μM Cd): decrease | nuclei concentration ([1]; 50 μM Cd): decrease | EIDEFENCE [1, 3]: elevated values | EIGROWTH [1, 3]: decreased values | toxic effect (Capsicum annuum): could be confirmed | EI (A. thaliana leaves; leaf 1, 1-10 μM Cd for 3 days or more (14-days-old plants or older)): dose-dependent decrease | EIDEFENCE (A. thaliana leaves; leaf 1, 1-10 μM Cd, FIG. 11D): elevated values | EIGROWTH (A. thaliana leaves; leaf 1, 1-10 μM Cd, FIG. 11E): decreased values | EI or ploidy levels (A. thaliana leaves; leaf 1, one day of exposure to Cd (12-days-old plants)): did not show significant changes | EI (A. thaliana leaves; leaf 3, 1-10 μM Cd, FIG. 12A): dose-dependent decrease | EIDEFENCE (A. thaliana leaves; leaf 3, 1-10 μM Cd, FIG. 12D): elevated values | EIGROWTH (A. thaliana leaves; leaf 3, 1-10 μM Cd, FIG. 12E): decreased values

C=C1C[C@]23C[C@@]1(O)CC[C@H]2[C@@]12C=C[C@H](O)[C@@](C)(C(=O)O1)[C@H]2[C@@H]3C(=O)O [GA3]
growth-stimulating effect by EI indices (Arabidopsis thaliana; Experiments A1.5-A1.7): EIGROWTH increased and/or EIDEFENCE decreased | concentration at which a shift towards toxicity was detected (both EI indices showing an opposite trend) (Arabidopsis thaliana; increasing concentrations, Experiment A1.7): 3 mg I-1

O=C(O)Cc1c[nH]c2ccccc12 [IAA]
EIDEFENCE (Arabidopsis thaliana; [2]): increased | EIGROWTH (Arabidopsis thaliana; [2]): decreased
